Source: PMC9675574 (JCI Insight, 2022)
Read-outs that look alike come from different tables or passages of the source.

Tests used:
[1] = target: T1, human trypsin isoform PRSS1 (cationic trypsin), recombinant (Homo sapiens, UniProt P07477); test: Competitive inhibition kinetics of trypsin, GPR-pNA substrate; type: biochemical; conditions: for kcat / Km: GPR-pNA, 24°C; for Ki: mean ± SD, n = 3
T1 construct: made in house; host or cells: Escherichia coli BL21(DE3)
Method: (§1) Recombinant human and mouse trypsinogens were expressed in Escherichia coli BL21(DE3) (Invitrogen), refolded in vitro, and purified by ecotin affinity chromatography (Pharmacia FPLC), according to published protocols ([60], [63], [64]). Sulfated human trypsinogens were purified from archived samples of human pancreatic juice, as described previously, with minor modifications ([65], [66]). Briefly, 50 mg freeze-dried pancreatic juice was dissolved in 2 mL 10 mM HCl, clarified by centrifugation (21,000g, 5 minutes, 4°C), and loaded onto a MonoQ 5/50 GL column equilibrated with 20 mM Tris-HCl (pH 8.0). Proteins were eluted with a 0–0.5 M NaCl gradient at 1 mL/min flow rate for 30 minutes. The fractions containing the cationic and anionic trypsinogens were further purified with ecotin affinity chromatography. The concentration of trypsinogen preparations was estimated from their UV absorbance at 280 nm using the extinction coefficients reported previously for mouse trypsinogens ([64]) and 37,525, 38,890, and 41,535/M/cm for human cationic trypsinogen (PRSS1), anionic trypsinogen (PRSS2), and mesotrypsinogen (PRSS3), respectively. To activate trypsinogen to trypsin, approximately 1 μM solution was incubated at 37°C with 28.2 ng/mL human enterokinase (final concentration) in 0.1 M Tris-HCl (pH 8.0), 10 mM CaCl2, and 0.05% Tween 20 for 1 hour. The activation reaction was followed by measuring trypsin activity: 2 μL trypsin was diluted in 48 μL assay buffer [0.1 M Tris-HCl (pH 8.0), 1 mM CaCl2, and 0.05% Tween 20], and 150 μL of 200 μM GPR-pNA trypsin substrate (in assay buffer) was added. Substrate cleavage resulting in the release of the yellow p-nitroaniline was monitored for 1 minute in a Spectramax Plus 384 microplate reader at 405 nm.
(§2) Michaelis-Menten kinetic parameters of trypsin isoforms were determined with the chromogenic substrate GPR-pNA at 24°C. The trypsin concentration was 1 nM and the substrate concentration was varied typically between 1.56 and 200 μM in a final volume of 200 μL assay buffer. The substrate concentration range was 3.1–400 μM for mouse trypsin isoform T7 and 0.4–50 μM for mouse trypsin isoform T20. Km and kcat values were calculated from hyperbolic fits to plots of reaction velocity versus substrate concentration.
(§3) Michaelis-Menten kinetic parameters were then measured after adding 100 μL trypsin substrate, as described above. […] To determine the Ki, the Km values were plotted as a function of the inhibitor concentration, and the Ki was calculated by dividing the y axis intercept with the slope of the linear fit. This value corresponds to the negative of the x axis intercept. Alternatively, the substrate saturation curves obtained in the absence and presence of the increasing inhibitor concentrations were globally fitted to the competitive inhibition equation y = vmax × (x/[KmObs+ x]), where y is the reaction velocity, vmax is the maximal velocity, x is the substrate concentration, and KmObs = Km × (1 + [I]/Ki), where [I] is the inhibitor concentration. Experiments were performed 3 times and each experiment was analyzed separately. […] Kinetic analysis was performed with the Prism 8 program (GraphPad).

[2] = target: T2, human trypsin isoform PRSS2 (anionic trypsin), recombinant (Homo sapiens, UniProt P07478); test: as above; type: biochemical; conditions: for kcat / Km: GPR-pNA, 24°C; for Ki: mean ± SD, n = 3
T2 construct: made in house; host or cells: Escherichia coli BL21(DE3)
T2 sequence (P07478 24-247): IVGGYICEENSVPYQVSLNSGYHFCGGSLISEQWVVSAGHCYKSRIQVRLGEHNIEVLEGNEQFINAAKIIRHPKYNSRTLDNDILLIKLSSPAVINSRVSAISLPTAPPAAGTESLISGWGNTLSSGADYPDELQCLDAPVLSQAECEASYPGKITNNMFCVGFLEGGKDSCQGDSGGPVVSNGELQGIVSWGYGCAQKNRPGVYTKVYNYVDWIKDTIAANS
Method: as §1, §2, §3

[3] = target: T3, human trypsin isoform PRSS3 (mesotrypsin) (Homo sapiens, UniProt P35030); test: as above; type: biochemical; conditions: for kcat: GPR-pNA, 24°C; for Ki: mean ± SD, n = 3
T3 construct: made in house; host or cells: Escherichia coli BL21(DE3)
T3 sequence (P35030 81-304 limits assumed): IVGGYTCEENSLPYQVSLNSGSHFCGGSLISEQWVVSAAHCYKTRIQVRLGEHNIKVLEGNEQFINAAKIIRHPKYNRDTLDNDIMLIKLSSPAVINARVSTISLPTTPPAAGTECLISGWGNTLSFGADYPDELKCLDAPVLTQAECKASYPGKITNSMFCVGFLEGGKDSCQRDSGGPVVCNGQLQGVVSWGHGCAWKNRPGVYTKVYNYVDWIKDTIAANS
Method: as §1, §2, §3

[4] = target: T4, mouse trypsin isoform T20 (anionic trypsin) (Mus musculus, UniProt P07146); test: as above; type: biochemical; conditions: for kcat / Km: GPR-pNA, 24°C; for Ki: mean ± SD, n = 3
T4 construct: made in house; host or cells: Escherichia coli BL21(DE3)
T4 sequence (P07146 24-246): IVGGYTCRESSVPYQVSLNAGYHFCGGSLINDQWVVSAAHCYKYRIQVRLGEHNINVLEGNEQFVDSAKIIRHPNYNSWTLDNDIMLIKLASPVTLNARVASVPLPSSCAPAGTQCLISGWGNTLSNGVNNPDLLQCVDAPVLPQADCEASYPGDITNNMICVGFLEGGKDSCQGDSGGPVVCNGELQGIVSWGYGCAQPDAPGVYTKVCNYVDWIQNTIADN
Method: as §1, §2, §3

[5] = target: T5, sulfated human trypsin PRSS1-SO4 purified from pancreatic juice (Homo sapiens, UniProt P07477); test: as above; type: biochemical; conditions: for kcat / Km: GPR-pNA, 24°C; for Ki: mean ± SD, n = 3
T5 construct: from tissue; host or cells: human pancreatic juice
Method: as §1, §2, §3

[6] = target: T6, sulfated human trypsin PRSS2-SO4 purified from pancreatic juice (Homo sapiens, UniProt P07478); test: as above; type: biochemical; conditions: for kcat / Km: GPR-pNA, 24°C; for Ki: mean ± SD, n = 3
T6 construct: from tissue; host or cells: human pancreatic juice
T6 sequence (P07478 24-247): as the sequence (P07478 24-247) above
Method: as §1, §2, §3

[7] = human volunteers, cited from earlier work

**Q.** What does the source list for `N=C(N)c1ccccc1` [benzamidine]?
**A.** kcat ([1]; 25 μM benzamidine): 134.8 ± 1.7 per second; kcat ([1]; 50 μM benzamidine): 121 ± 3.3 per second; kcat ([1]; 75 μM benzamidine): 136.3 ± 9.2 per second; kcat ([1]; 100 μM benzamidine): 143.2 ± 8.1 per second; Ki ([1]; Ki benzamidine, Global fit): 22.5 ± 4 µM; Ki ([1]; Ki benzamidine, Individual fit): 15.7 ± 4.7 µM; kcat ([2]; 25 μM benzamidine): 78.7 ± 1.7 per second; kcat ([2]; 50 μM benzamidine): 78.4 ± 1.8 per second; kcat ([2]; 75 μM benzamidine): 82.1 ± 2.4 per second; kcat ([2]; 100 μM benzamidine): 78.3 ± 4.5 per second; Ki ([2]; Ki benzamidine, Global fit): 8.9 ± 0.7 µM; Ki ([2]; Ki benzamidine, Individual fit): 8.6 ± 2.2 µM; kcat ([3]; 25 μM benzamidine): 211.9 ± 8.6 per second; kcat ([3]; 50 μM benzamidine): 214.2 ± 4.7 per second; kcat ([3]; 75 μM benzamidine): 201.3 ± 8 per second; kcat ([3]; 100 μM benzamidine): 205.7 ± 6.3 per second; Ki ([3]; Ki benzamidine, Global fit): 13.3 ± 0.8 µM; Ki ([3]; Ki benzamidine, Individual fit): 15.5 ± 2.3 µM; kcat ([4]; 12.5 μM benzamidine): 65 ± 1 per second; kcat ([4]; 25 μM benzamidine): 62.1 ± 1.8 per second; kcat ([4]; 37.5 μM benzamidine): 64.7 ± 2.1 per second; kcat ([4]; 50 μM benzamidine): 65.6 ± 2.1 per second; Ki ([4]; Ki benzamidine, Global fit): 7.6 ± 0.5 µM; Ki ([4]; Ki benzamidine, Individual fit): 6.9 ± 1.1 µM; kcat ([5]; 12.5 μM benzamidine): 104.1 ± 2.8 per second; kcat ([5]; 25 μM benzamidine): 112.1 ± 4.9 per second; kcat ([5]; 37.5 μM benzamidine): 108.4 ± 5.3 per second; kcat ([5]; 50 μM benzamidine): 113.6 ± 7.2 per second; Ki ([5]; Ki benzamidine, Global fit): 10.5 ± 0.9 µM; Ki ([5]; Ki benzamidine, Individual fit): 8.3 ± 2.2 µM; kcat ([6]; 12.5 μM benzamidine): 64.8 ± 1.6 per second; kcat ([6]; 25 μM benzamidine): 64.3 ± 1.4 per second; kcat ([6]; 37.5 μM benzamidine): 64.5 ± 1.5 per second; kcat ([6]; 50 μM benzamidine): 69.3 ± 0.3 per second; Ki ([6]; Ki benzamidine, Global fit): 4.2 ± 0.7 µM; Ki ([6]; Ki benzamidine, Individual fit): 3.3 ± 0.5 µM

**Q.** What does the source list for `[H]/N=C(/N)c1ccc(NCc2nc3cc(C(=O)N(CCC(=O)O)c4ccccn4)ccc3n2C)cc1` [dabigatran]?
**A.** Km ([1]; 25 nM dabigatran): 31.3 ± 3.6 µM; kcat ([1]; 25 nM dabigatran): 90.8 ± 2.8 per second; Km ([1]; 50 nM dabigatran): 50.2 ± 2.5 µM; kcat ([1]; 50 nM dabigatran): 91.6 ± 4.8 per second; Km ([1]; 75 nM dabigatran): 71.1 ± 4.2 µM; kcat ([1]; 75 nM dabigatran): 95 ± 2.3 per second; Km ([1]; 100 nM dabigatran): 88.7 ± 3.1 µM; kcat ([1]; 100 nM dabigatran): 99.8 ± 3.3 per second; Ki ([1]; Ki dabigatran, Global fit): 0.0282 ± 0.0045 µM; Ki ([1]; Ki dabigatran, Individual fit): 0.021 ± 0.0023 µM; Km ([2]; 25 nM dabigatran): 23 ± 1.3 µM; kcat ([2]; 25 nM dabigatran): 90.6 ± 2.6 per second; Km ([2]; 50 nM dabigatran): 37.6 ± 0.6 µM; kcat ([2]; 50 nM dabigatran): 89.1 ± 1.7 per second; Km ([2]; 75 nM dabigatran): 46.8 ± 1.5 µM; kcat ([2]; 75 nM dabigatran): 90.2 ± 2.3 per second; Km ([2]; 100 nM dabigatran): 61.1 ± 6.1 µM; kcat ([2]; 100 nM dabigatran): 87.5 ± 4.4 per second; Ki ([2]; Ki dabigatran, Global fit): 0.0141 ± 0.0011 µM; Ki ([2]; Ki dabigatran, Individual fit): 0.0179 ± 0.0033 µM; kcat ([3]; 50 nM dabigatran): 214.6 ± 4.9 per second; kcat ([3]; 100 nM dabigatran): 215.5 ± 4.6 per second; kcat ([3]; 150 nM dabigatran): 217.5 ± 10.8 per second; kcat ([3]; 200 nM dabigatran): 220.5 ± 4.1 per second; Ki ([3]; Ki dabigatran, Global fit): 0.0516 ± 0.0021 µM; Ki ([3]; Ki dabigatran, Individual fit): 0.0351 ± 0.0024 µM; Km ([4]; 50 nM dabigatran): 9.5 ± 1.3 µM; kcat ([4]; 50 nM dabigatran): 52 ± 4 per second; Km ([4]; 100 nM dabigatran): 19.5 ± 0.5 µM; kcat ([4]; 100 nM dabigatran): 51.1 ± 1.7 per second; Km ([4]; 150 nM dabigatran): 22.5 ± 2.5 µM; kcat ([4]; 150 nM dabigatran): 48.7 ± 3.3 per second; Km ([4]; 200 nM dabigatran): 28.5 ± 2.2 µM; kcat ([4]; 200 nM dabigatran): 50 ± 6.3 per second; Ki ([4]; Ki dabigatran, Global fit): 0.0226 ± 0.0007 µM; Km ([5]; 25 nM dabigatran): 21.4 ± 1.5 µM; kcat ([5]; 25 nM dabigatran): 101 ± 2.3 per second; Km ([5]; 50 nM dabigatran): 32.7 ± 3 µM; kcat ([5]; 50 nM dabigatran): 105.5 ± 5.1 per second; Km ([5]; 75 nM dabigatran): 42.8 ± 7.8 µM; kcat ([5]; 75 nM dabigatran): 103.2 ± 4.2 per second; Km ([5]; 100 nM dabigatran): 57 ± 2.1 µM; kcat ([5]; 100 nM dabigatran): 104.7 ± 2.1 per second; Ki ([5]; Ki dabigatran, Global fit): 0.0233 ± 0.002 µM; Km ([6]; 25 nM dabigatran): 13 ± 0.5 µM; kcat ([6]; 25 nM dabigatran): 63.4 ± 0.4 per second; Km ([6]; 50 nM dabigatran): 23.5 ± 1.3 µM; kcat ([6]; 50 nM dabigatran): 66.8 ± 1.6 per second; Km ([6]; 75 nM dabigatran): 31.5 ± 0.4 µM; kcat ([6]; 75 nM dabigatran): 63.8 ± 0.9 per second; Km ([6]; 100 nM dabigatran): 42.4 ± 3.5 µM; kcat ([6]; 100 nM dabigatran): 67.2 ± 1.9 per second; Ki ([6]; Ki dabigatran, Global fit): 0.0103 ± 0.0005 µM; Ki ([6]; Ki dabigatran, Individual fit): 0.01 ± 0.0032 µM; steady-state plasma levels of dabigatran ([7]; 100 mg dabigatran etexilate 3 times daily): around 50 ng/mL; steady-state plasma levels of dabigatran ([7]; 200 mg dabigatran etexilate 3 times daily): ~100 ng/mL
